Columns and labels:
[1] = tested on: human colon carcinoma cell line, SW-480; assay: Sulforhodamine B (SRB) tumor cell growth inhibition assay; type: cell-based; conditions: SW-480 cells, six days continuous exposure; for inhibition at 100 µM: Homo sapiens, SW480, 144 h
Protocol: The compounds of this invention were assayed for their growth inhibitory activity on the human colon carcinoma cell line, SW-480 obtained from ATCC (Rockville, Md.), to ascertain the degree of growth inhibition (Skehan et al., J. Natl. Cancer Instit. 82:1107-1112, 1990). Growth inhibition of this cell line is indicative of a benefit on precancerous lesions and neoplasms. The cell line and growth assay employed for such experiments are well characterized, and are used to evaluate the anti-neoplastic properties of compounds (Piazza, Cancer Research Vol. 57, pp. 2452-2459, 1997). The assay is used by the United States National Cancer Institute in its screening program for new anti-cancer drugs.
Drug stock solutions were made in 100% DMSO and were then diluted with RPMI media for cell culture testing. All drug solutions were prepared fresh on the day of testing. The cultured cells were obtained at passage #99 and grown in RPMI media supplemented with 5% fetal calf serum, and 2 mM glutamine, […] penicillin, 100 U/ml streptomycin, and 0.25 μg/ml amphotericin. The cultures were maintained in a humidified atmosphere of 95% air and 5% CO2 at 37° C. The cultures were passaged at preconfluent densities using a solution of 0.05% trypsin and 0.53 mM EDTA. Cells were plated at 1000 cells/well for 96 well flat-bottom microtiter plates.
Tumor cell growth inhibition was assessed using the Sulforhodamine B (SRB) protein binding assay. In this assay, tumor cells were plated in 96-well plates and treated with drug-containing media for six days (continuous exposure). For each plate, 6 wells were designated as no treatment controls, six wells as vehicle (0.1% DMSO) controls, and the remaining wells for drug dilutions with three wells per drug concentration. At the end of the exposure period, the cells were fixed and stained with sulforhodamine B, a protein binding dye. The dye was then solubilized, and the optical density of the resulting solution was determined on a 96-well plate reader. The mean optical density of the treated wells was then divided by the mean optical density in the control wells (6 wells of each) to determine the effect of the drug on the cells. Dye intensity is proportional to the number of cells or amount of protein per well. The resultant “percent inhibition” values, which then represents the degree of growth inhibition, for the indicated compounds from the Examples are tabulated in Table 1.
For one compound of this invention, an IC50 value was determined. An IC50 value is equivalent to the concentration of compound needed to inhibit tumor cell growth by 50%. The IC50 value was obtained graphically by plotting and connecting the mean growth inhibition values for each drug concentration tested. The experiment included three wells per drug concentration. Concentration was plotted on a log scale on the X-axis.

[2] = target: T1, purified cyclooxygenase Type 1 (COX I) (Ovis aries, UniProt P05979); assay: Cyclooxygenase (COX I) inhibition, purified enzyme; type: biochemical; conditions: 100 μM compound, arachidonic acid 100 μM, 2.0 min at 37° C., COX I from ram seminal vesicles
T1 construct: The COX I was purified from ram seminal vesicles; from tissue; host or cells: ram seminal vesicles
T1 sequence (P05979 25-600): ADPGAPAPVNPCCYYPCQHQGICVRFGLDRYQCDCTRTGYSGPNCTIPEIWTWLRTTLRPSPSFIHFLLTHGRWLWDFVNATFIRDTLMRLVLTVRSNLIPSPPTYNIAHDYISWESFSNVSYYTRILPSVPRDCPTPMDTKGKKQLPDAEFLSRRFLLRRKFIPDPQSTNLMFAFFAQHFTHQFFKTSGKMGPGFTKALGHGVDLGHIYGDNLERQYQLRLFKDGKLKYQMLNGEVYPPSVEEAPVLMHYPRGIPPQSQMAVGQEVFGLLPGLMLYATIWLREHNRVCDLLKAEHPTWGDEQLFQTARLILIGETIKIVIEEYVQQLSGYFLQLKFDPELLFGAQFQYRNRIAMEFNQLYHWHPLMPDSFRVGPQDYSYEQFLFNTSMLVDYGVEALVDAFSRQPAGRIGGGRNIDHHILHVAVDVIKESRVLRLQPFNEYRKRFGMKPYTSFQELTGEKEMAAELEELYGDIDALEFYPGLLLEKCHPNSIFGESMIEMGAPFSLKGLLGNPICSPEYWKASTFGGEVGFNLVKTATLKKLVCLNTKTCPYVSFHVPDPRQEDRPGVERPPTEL
Protocol: COX I catalyzes the formation of prostaglandins and thromboxane by the oxidative metabolism of arachidonic acid. Compounds of this invention, as well as a positive control, (sulindac sulfide) were evaluated to determine whether they inhibited purified cyclooxygenase Type 1 (see Table 3 below).
The COX I was purified from ram seminal vesicles, as described by Boopathy, R. and Balasubramanian, J. 239:371-377, 1988. COX I activity was assayed as described by Evans, A. T. et al., “Actions of Cannabis Constituents on Enzymes Of Arachidonate Metabolism Anti-Inflammatory Potential,” Biochem. Pharmacol., 36:2035-2037, 1987. Purified COX I was incubated with arachidonic acid (100 μM) for 2.0 min at 37° C. in the presence or absence of test compounds. The assay was terminated by the addition of TCA, and COX I activity was determined by absorbance at […].

SMILES	melting point	inhibition at 100 µM [2]	% Growth Inhibition at 100 μM [1]	COX I % Inhibition (100 μM) [2]	inhibition at 100 µM [1]
COC(=O)Cc1nnc(Sc2ccccc2)c2ccccc12 [Example 19, Methyl-2-(4-Phenylthiophthalazinyl)acetate]			61%	<25%	
c1ccc(CSc2nnc(-c3ccccc3)c3ccccc23)cc1 [Example 1, 1-Benzylthio-4-Phenylphthalazine]	92 °C	30%			85%
CC(C)(C)OC(=O)CSc1nnc(-c2ccccc2)c2ccccc12 [Example 21, 1-(t-Butyl 2′Mercaptoacetate)-4-Phenylphthalazine]			51%		
c1ccc(-c2nnc(SCc3ccc4ccccc4c3)c3ccccc23)cc1 [Example 20, 1-(2′-Naphthylmethylthio)-4-Phenylphthalazine]			<50%	<25%	
CSc1nnc(-c2ccccc2)c2ccccc12 [Example 3, 1-Methylthio-4-Phenylphthalazine]	147 °C	73%			< 50%
C=CCSc1nnc(-c2ccccc2)c2ccccc12 [Example 2, 1-(2-Propenylthio)-4-Phenylphthalazine]	83 °C	62%			87%
Clc1cccc(CSc2nnc(-c3ccccc3)c3ccccc23)c1 [Example 4, 1-(3-Chlorobenzylthio)-4-Phenylphthalazine]	85 °C	< 25%			81%

The next lines start with results.

melting point	inhibition at 100 µM [2]	SMILES	% Growth Inhibition at 100 μM [1]	COX I % Inhibition (100 μM) [2]	inhibition at 100 µM [1]
	< 25%	Clc1cccc(CSc2nnc(-c3ccccn3)c3ccccc23)c1 [Example 22, 1-(3-Chlorobenzylthio)-4-(2-Pyridyl)-Phthalazine]			88%
	81%	O=S(=O)(Cc1ccccc1)c1nnc(-c2ccccc2)c2ccccc12 [Example 18, 1-(Benzylsulfonyl)-4-Phenylphthalazine]			
104 °C	< 25%	Fc1ccc(CSc2nnc(-c3ccccc3)c3ccccc23)cc1 [Example 11, 1-(4-Fluorobenzylthio)-4-Phenylphthalazine]			76%
	97%	CSc1ccc(/C=C2/C(C)=C(CC(=O)O)c3cc(F)ccc32)cc1 [Sulindac sulfide, sulindac sulfide, reference compound]			
93 °C		CCSc1nnc(-c2ccccc2)c2ccccc12 [Example 35, 1-Ethylthio-4-Phenylphthalazine]			
